Laboratory results taken from ChEMBL document CHEMBL6074659, “Development of an Intravenously Stable Disulfide-Rich Peptide for the Treatment of Chemotherapy-Induced Neuropathic Pain” (J Med Chem, 2024).
The source made the active and inactive calls. The rule behind the calls is not given here. Residues, ends and D or L forms follow the SMILES beside them.

How the values were obtained:
[1] = target: Neuronal acetylcholine receptor; alpha3/beta4 (Homo sapiens) (UniProt P30926+P32297); test: Inhibition of human alpha3beta4 nAChR assessed as reduction in acetylcholine-induced current at 10 to 100 nM incubated for 5 mins by two electrode voltage-clamp assay relative to control; type: protein-complex assay; conditions: dose 10-100 nM
[2] = target: T1, Neuronal acetylcholine receptor; alpha9/alpha10 (Homo sapiens, UniProt Q9GZZ6+Q9UGM1); test: Antagonist activity at human alpha9alpha10 nAChR expressed in acetylcholine-induced Xenopus laevis oocytes assessed as inhibition of acetylcholine-induced current at -80 mV holding potential incubated for 5 mins by two electrode voltage-clamp assay; type: cell-based, Oocyte
T1 sequence (Q9UGM1 whole entry): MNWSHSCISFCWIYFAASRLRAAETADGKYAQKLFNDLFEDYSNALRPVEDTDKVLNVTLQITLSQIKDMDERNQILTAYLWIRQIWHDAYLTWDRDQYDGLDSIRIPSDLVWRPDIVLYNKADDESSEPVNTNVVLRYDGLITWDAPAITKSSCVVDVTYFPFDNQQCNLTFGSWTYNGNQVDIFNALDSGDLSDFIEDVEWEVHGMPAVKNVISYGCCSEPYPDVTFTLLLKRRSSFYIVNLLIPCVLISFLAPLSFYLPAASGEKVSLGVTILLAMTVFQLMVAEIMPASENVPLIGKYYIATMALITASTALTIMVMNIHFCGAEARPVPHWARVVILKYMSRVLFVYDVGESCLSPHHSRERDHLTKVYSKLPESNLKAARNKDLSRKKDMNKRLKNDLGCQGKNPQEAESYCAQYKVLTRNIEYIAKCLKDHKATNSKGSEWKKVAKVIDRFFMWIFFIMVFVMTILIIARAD
T1 sequence (Q9GZZ6 whole entry): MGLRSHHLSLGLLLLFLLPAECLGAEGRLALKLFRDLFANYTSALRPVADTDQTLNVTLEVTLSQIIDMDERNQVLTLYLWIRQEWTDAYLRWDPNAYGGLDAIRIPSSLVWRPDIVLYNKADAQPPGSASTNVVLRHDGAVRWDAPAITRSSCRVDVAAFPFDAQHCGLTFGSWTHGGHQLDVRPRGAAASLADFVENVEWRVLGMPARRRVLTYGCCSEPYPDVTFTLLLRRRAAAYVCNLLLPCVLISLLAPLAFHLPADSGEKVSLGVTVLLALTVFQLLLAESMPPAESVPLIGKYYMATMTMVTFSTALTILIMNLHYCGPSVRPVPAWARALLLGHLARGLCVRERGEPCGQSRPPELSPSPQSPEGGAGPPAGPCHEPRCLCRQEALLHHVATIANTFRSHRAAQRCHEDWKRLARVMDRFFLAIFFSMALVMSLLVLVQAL

[3] = tested on: Rattus norvegicus; test: Analgesic activity in Oxaliplatin-induced cold allodynia iv dosed SPF male Sprague-Dawley rat assessed as reduction in pain-relieving effect measured at 72 hrs; type: functional, organism-based; conditions: dose 500.0 µg/kg
[4] = tested on: Rattus norvegicus; test: Analgesic activity in Oxaliplatin-induced cold allodynia SPF male Sprague-Dawley rat assessed as reduction in pain-relieving effect by measuring acetone response score at 50 microg/kg, iv measured at 48 hrs; type: functional, organism-based; conditions: dose 50.0 µg/kg
[5] = tested on: Rattus norvegicus; test: Analgesic activity in Oxaliplatin-induced cold allodynia SPF male Sprague-Dawley rat assessed as reduction in pain-relieving effect at 500 microg/kg, iv measured at 24 to 48 hrs; type: functional, organism-based; conditions: dose 500.0 µg/kg, time 24-48 hrs
[6] = target: Neuronal acetylcholine receptor; alpha3/beta2 (Homo sapiens, UniProt P17787+P32297); test: Inhibition of human alpha3beta2 nAChR assessed as reduction in acetylcholine-induced current incubated for 5 mins by two electrode voltage-clamp assay; type: protein-complex assay
Sequence of Neuronal acetylcholine receptor; alpha3/beta2 (P17787 whole entry): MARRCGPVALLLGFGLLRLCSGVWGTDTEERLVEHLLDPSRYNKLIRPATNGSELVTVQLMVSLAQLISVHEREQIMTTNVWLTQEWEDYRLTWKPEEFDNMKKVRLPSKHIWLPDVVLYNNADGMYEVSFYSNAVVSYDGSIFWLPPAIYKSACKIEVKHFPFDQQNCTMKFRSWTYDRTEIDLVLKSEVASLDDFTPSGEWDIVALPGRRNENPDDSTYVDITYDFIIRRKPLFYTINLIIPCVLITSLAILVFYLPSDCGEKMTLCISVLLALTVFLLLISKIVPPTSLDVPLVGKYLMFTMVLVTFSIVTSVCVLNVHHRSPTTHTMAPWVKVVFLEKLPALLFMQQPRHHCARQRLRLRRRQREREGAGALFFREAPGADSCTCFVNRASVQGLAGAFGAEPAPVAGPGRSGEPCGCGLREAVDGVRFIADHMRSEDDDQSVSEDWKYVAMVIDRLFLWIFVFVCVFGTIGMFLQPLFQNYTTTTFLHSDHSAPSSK
Sequence of Neuronal acetylcholine receptor; alpha3/beta2 (P32297 whole entry): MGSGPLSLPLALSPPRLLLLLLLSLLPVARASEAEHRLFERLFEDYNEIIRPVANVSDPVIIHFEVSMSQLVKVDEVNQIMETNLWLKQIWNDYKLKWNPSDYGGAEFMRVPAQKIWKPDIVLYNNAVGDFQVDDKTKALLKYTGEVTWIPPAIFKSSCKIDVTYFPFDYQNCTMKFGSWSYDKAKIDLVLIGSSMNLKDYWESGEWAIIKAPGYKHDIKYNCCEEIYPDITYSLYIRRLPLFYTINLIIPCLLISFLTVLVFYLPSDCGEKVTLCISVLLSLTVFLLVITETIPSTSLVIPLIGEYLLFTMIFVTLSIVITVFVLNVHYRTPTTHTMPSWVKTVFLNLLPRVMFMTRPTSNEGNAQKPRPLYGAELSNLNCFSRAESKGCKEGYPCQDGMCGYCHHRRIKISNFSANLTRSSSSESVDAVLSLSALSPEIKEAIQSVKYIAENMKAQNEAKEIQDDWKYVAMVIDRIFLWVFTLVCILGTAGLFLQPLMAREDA

[7] = Stability in human serum assessed as parent compound remaining incubated at 48 hrs by RP-HPLC analysis; type: ADME, cell-free; conditions: read-out: Stability
[8] = tested on: Rattus norvegicus; test: Analgesic activity in Oxaliplatin-induced cold allodynia SPF male Sprague-Dawley rat assessed as latency time at 500 microg/kg, iv measured at 48 hrs by cold plate test; type: functional; conditions: dose 500 µg/kg
[9] = target: T1, Neuronal acetylcholine receptor; alpha9/alpha10; test: Inhibition of human alpha9alpha10 nAChR assessed as reduction in acetylcholine-induced current incubated for 5 mins by two electrode voltage-clamp assay; type: protein-complex assay
[10] = target: T2, Neuronal acetylcholine receptor; alpha4/beta4 (Homo sapiens) (UniProt P30926+P43681); test: Inhibition of human alpha4beta4 nAChR assessed as reduction in acetylcholine-induced current at 10 nM incubated for 5 mins by two electrode voltage-clamp assay; type: protein-complex assay
[11] = target: Neuronal acetylcholine receptor subunit alpha-7 (Homo sapiens, UniProt P36544); test: Inhibition of human alpha7 nAChR assessed as reduction in acetylcholine-induced current incubated for 5 mins by two electrode voltage-clamp assay
Sequence of Neuronal acetylcholine receptor subunit alpha-7 (P36544 whole entry): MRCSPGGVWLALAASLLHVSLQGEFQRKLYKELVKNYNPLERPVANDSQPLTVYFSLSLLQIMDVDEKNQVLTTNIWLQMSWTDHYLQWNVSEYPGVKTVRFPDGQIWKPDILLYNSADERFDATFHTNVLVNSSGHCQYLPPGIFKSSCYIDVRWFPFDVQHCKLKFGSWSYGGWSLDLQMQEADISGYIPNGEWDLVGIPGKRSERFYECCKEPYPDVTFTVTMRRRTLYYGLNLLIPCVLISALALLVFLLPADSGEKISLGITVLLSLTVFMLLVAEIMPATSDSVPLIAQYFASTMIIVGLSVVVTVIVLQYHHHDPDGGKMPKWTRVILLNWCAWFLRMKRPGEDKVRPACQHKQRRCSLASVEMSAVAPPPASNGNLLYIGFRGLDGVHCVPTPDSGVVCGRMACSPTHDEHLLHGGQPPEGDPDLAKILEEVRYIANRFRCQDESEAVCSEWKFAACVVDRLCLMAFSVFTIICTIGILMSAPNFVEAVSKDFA

[12] = organism: Homo sapiens; test: Inhibition of human alpha1beta1deltagamma nAChR assessed as reduction in acetylcholine-induced current at 10 to 100 nM incubated for 5 mins by two electrode voltage-clamp assay relative to control; conditions: dose 10-100 nM
[13] = organism: Homo sapiens; test: Inhibition of human alpha1beta1epsilondelta nAChR assessed as reduction in acetylcholine-induced current at 10 to 100 nM incubated for 5 mins by two electrode voltage-clamp assay relative to control; conditions: dose 10-100 nM
[14] = tested on: Rattus norvegicus; test: Analgesic activity in Oxaliplatin-induced cold allodynia SPF male Sprague-Dawley rat assessed as increase in latency at 500 microg/kg, iv measured at 72 hrs by cold plate test; type: functional, organism-based; conditions: dose 500.0 µg/kg
[15] = target: T2, Neuronal acetylcholine receptor; alpha4/beta4 (Homo sapiens); test: Inhibition of human alpha4beta4 nAChR assessed as reduction in acetylcholine-induced current at 10 to 100 nM incubated for 5 mins by two electrode voltage-clamp assay relative to control; type: protein-complex assay; conditions: dose 10-100 nM
[16] = tested on: Rattus norvegicus; test: Analgesic activity in Oxaliplatin-induced cold allodynia SPF male Sprague-Dawley rat assessed as reduction in pain-relieving effect by measuring acetone response score at 200 microg/kg, iv measured at 48 hrs; type: functional, organism-based; conditions: dose 200.0 µg/kg
[17] = target: T2, Neuronal acetylcholine receptor; alpha4/beta4 (Homo sapiens); test: Inhibition of human alpha4beta4 nAChR assessed as reduction in acetylcholine-induced current at 100 nM incubated for 5 mins by two electrode voltage-clamp assay relative to control; type: protein-complex assay
[18] = Stability in human serum assessed as half life incubated upto 192 hrs by RP-HPLC analysis; type: ADME, cell-free
[19] = Stability in human serum assessed as parent compound remaining incubated at 24 hrs by RP-HPLC analysis; type: ADME, cell-free; conditions: for remaining at 24 h: human serum, read-out: Stability; for Stability: serum, 24 h
[20] = tested on: Rattus norvegicus; test: Analgesic activity in Oxaliplatin-induced cold allodynia SPF male Sprague-Dawley rat assessed as increase in latency at 200 microg/kg, iv measured at 72 hrs by cold plate test; type: functional, organism-based; conditions: dose 200.0 µg/kg
[21] = target: Neuronal acetylcholine receptor; alpha9/alpha10 (Homo sapiens) (UniProt Q9UGM1+Q9GZZ6); test: Antagonist activity at human alpha9alpha10 nAChR expressed in acetylcholine-induced Xenopus laevis oocytes assessed as inhibition of acetylcholine-induced current at 10 nM at -80 mV holding potential incubated for 5 mins by two electrode voltage-clamp assay relative to control; type: cell-based; conditions: Oocyte, filed as antagonist
[22] = Stability in human serum assessed as parent compound remaining incubated measured upto 48 hrs by RP-HPLC analysis; type: ADME, cell-free
[23] = Stability in human serum assessed as half life incubated upto 48 hrs by RP-HPLC analysis; type: ADME, cell-free
[24] = tested on: Rattus norvegicus; test: Analgesic activity in Oxaliplatin-induced cold allodynia SPF male Sprague-Dawley rat assessed as reduction in pain-relieving effect at 500 microg/kg, iv measured at 1 to 24 hrs; type: functional, organism-based; conditions: dose 500.0 µg/kg, time 1-24 hrs
[25] = Antagonist activity at rat alpha9alpha10 nAChR expressed in acetylcholine-induced Xenopus laevis oocytes assessed as inhibition of acetylcholine-induced current at -80 mV holding potential incubated for 5 mins by two electrode voltage-clamp assay; type: cell-based; conditions: Oocyte

Compound	IC50 [2] [nM]	IC50 [6] [nM]	remaining at 48 h [7] [%]	IC50 [9] [nM]	IC50 [11] [nM]	remaining at 24 h [19] [%]	Activity [20]	inhibition [21] [%]	Stability [22]	Stability [19] [%]	also measured
CC[C@H](C)[C@@H]1NC(=O)[C@H](CC(=O)O)NC(=O)[C@@H]2CCCN2C(=O)[C@H](CC(N)=O)NC(=O)[C@H](CC(N)=O)NC(=O)[C@H](C(C)C)NC(=O)[C@H](CO)NC(=O)[C@@H]2CSSC[C@H](NC(=O)CN)C(=O)N[C@@H](CSSC(C)(C)[C@@H](C(N)=O)NC1=O)C(=O)N[C@@H](CN)C(=O)N[C@@H](Cc1cnc[nH]1)C(=O)N1CCC[C@H]1C(=O)N[C@@H](C)C(=O)N2 (HELM PEPTIDE1{G.C.C.[NC[C@H](N[*:1])C(=O)[*:2]].H.P.A.C.S.V.N.N.P.D.I.[Pen].[am]}$PEPTIDE1,PEPTIDE1,2:R3-8:R3|PEPTIDE1,PEPTIDE1,3:R3-16:R3$$$V2.0)	4	21.8	85	4.1	133	90	Active	–	–	–	inhibition [1]: < 1%; Activity [3]: Dose-dependent-effect; Activity [4]: inactive; Activity [5]: Active; Time [8]: 140 s; inhibition [10]: inactive; inhibition [12]: < 1%; inhibition [13]: < 1%; Activity [14]: Active; inhibition [15]: < 1%; Activity [16]: Active; inhibition [17]: 20%; half-life [18]: 142 h
CC[C@H](C)[C@@H]1NC(=O)[C@H](CC(=O)O)NC(=O)[C@@H]2CCCN2C(=O)[C@H](CC(N)=O)NC(=O)[C@H](CC(N)=O)NC(=O)[C@H](C(C)C)NC(=O)[C@H](CO)NC(=O)[C@@H]2CSSC[C@@H]3NC(=O)CNC(=O)[C@@H](N)CC(=O)NCC[C@@H](C(N)=O)NC(=O)[C@H](CSSC[C@H](NC3=O)C(=O)N[C@@H](CN)C(=O)N[C@@H](Cc3cnc[nH]3)C(=O)N3CCC[C@H]3C(=O)N[C@@H](C)C(=O)N2)NC1=O (HELM PEPTIDE1{D.G.C.C.[NC[C@H](N[*:1])C(=O)[*:2]].H.P.A.C.S.V.N.N.P.D.I.C.[Dab].[am]}$PEPTIDE1,PEPTIDE1,1:R3-18:R3|PEPTIDE1,PEPTIDE1,3:R3-9:R3|PEPTIDE1,PEPTIDE1,4:R3-17:R3$$$V2.0)	3.3	–	–	–	–	64.6	–	90	Stable	–	–
CC[C@H](C)[C@H](NC(=O)[C@H](CC(=O)O)NC(=O)[C@@H]1CCCN1C(=O)[C@H](CC(N)=O)NC(=O)[C@H](CC(N)=O)NC(=O)[C@@H](NC(=O)[C@H](CO)NC(=O)[C@H](CS)NC(=O)[C@H](C)NC(=O)[C@@H]1CCCN1C(=O)[C@H](Cc1cnc[nH]1)NC(=O)[C@H](CN)NC(=O)[C@H](CS)NC(=O)[C@H](CS)NC(=O)CN)C(C)C)C(=O)N[C@@H](CS)C(N)=O (HELM PEPTIDE1{G.C.C.[NC[C@H](N[*:1])C(=O)[*:2]].H.P.A.C.S.V.N.N.P.D.I.C.[am]}$$$$V2.0)	4	20.6	< 30	4	206	58.6	Active	80	–	57.3	half-life [23]: 26.2 h; Activity [24]: Active
CC[C@H](C)[C@@H]1NC(=O)[C@H](CC(=O)O)NC(=O)[C@@H]2CCCN2C(=O)[C@H](CC(N)=O)NC(=O)[C@H](CC(N)=O)NC(=O)[C@H](C(C)C)NC(=O)[C@H](CO)NC(=O)[C@@H]2CSSC[C@@H]3NC(=O)CNC(=O)[C@@H](N)CC(=O)NC[C@@H](C(N)=O)NC(=O)[C@H](CSSC[C@H](NC3=O)C(=O)N[C@@H](CN)C(=O)N[C@@H](Cc3cnc[nH]3)C(=O)N3CCC[C@H]3C(=O)N[C@@H](C)C(=O)N2)NC1=O (HELM PEPTIDE1{D.G.C.C.[NC[C@H](N[*:1])C(=O)[*:2]].H.P.A.C.S.V.N.N.P.D.I.C.[O=C([C@H](CN[*:3])N[*:1])[*:2]].[am]}$PEPTIDE1,PEPTIDE1,1:R3-18:R3|PEPTIDE1,PEPTIDE1,3:R3-9:R3|PEPTIDE1,PEPTIDE1,4:R3-17:R3$$$V2.0)	3.2	–	–	–	–	57.3	–	90	Stable	72.4	–
CC[C@H](C)[C@@H]1NC(=O)[C@H](CC(=O)O)NC(=O)[C@@H]2CCCN2C(=O)[C@H](CC(N)=O)NC(=O)[C@H](CC(N)=O)NC(=O)[C@H](C(C)C)NC(=O)[C@H](CO)NC(=O)[C@@H]2CSSC[C@H](NC(=O)CN)C(=O)N[C@H](C(=O)N[C@@H](CN)C(=O)N[C@@H](Cc3cnc[nH]3)C(=O)N3CCC[C@H]3C(=O)N[C@@H](C)C(=O)N2)C(C)(C)SSC[C@@H](C(N)=O)NC1=O (HELM PEPTIDE1{G.C.[Pen].[NC[C@H](N[*:1])C(=O)[*:2]].H.P.A.C.S.V.N.N.P.D.I.C.[am]}$PEPTIDE1,PEPTIDE1,2:R3-8:R3|PEPTIDE1,PEPTIDE1,3:R3-16:R3$$$V2.0)	9.9	–	60	–	–	80	–	50	–	–	IC50 [25]: 2.7 nM
